Experimental data reported in US20090298811A1, “BENZIMIDAZOLONE DERIVATIVES” (Pfizer Inc, priority 2006, published 2009).
Structures can show the parent of a compound that is named as a salt.

Key:
[1] = biological target: T1, human CB1 receptor (Homo sapiens, UniProt P21554); assay: GTPγS binding on membranes of CHO cells expressing the human CB1 receptor; type: biochemical; design: expressed in transfected cells; host or cells: CHO cells (G418 selection); membranes; conditions: CHO cell membranes, [35S] GTPγS
T1 sequence (P21554 whole entry): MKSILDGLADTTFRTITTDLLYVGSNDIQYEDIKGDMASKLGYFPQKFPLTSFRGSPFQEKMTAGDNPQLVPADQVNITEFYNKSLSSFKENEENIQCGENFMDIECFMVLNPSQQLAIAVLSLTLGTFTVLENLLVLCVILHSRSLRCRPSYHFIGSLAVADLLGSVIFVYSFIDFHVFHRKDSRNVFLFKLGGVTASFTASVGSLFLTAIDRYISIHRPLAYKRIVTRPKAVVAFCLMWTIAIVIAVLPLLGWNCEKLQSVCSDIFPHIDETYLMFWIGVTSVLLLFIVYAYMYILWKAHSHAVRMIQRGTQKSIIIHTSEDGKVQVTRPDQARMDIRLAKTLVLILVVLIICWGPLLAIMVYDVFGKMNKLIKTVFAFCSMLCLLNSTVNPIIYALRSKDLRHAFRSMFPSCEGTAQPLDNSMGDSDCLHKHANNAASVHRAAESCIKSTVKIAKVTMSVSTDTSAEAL
Procedure: Membrane preparation: CHO cells expressing the human CB1 receptor were grown to 80% confluence in Ham's F-12 Nutrient Medium (Invitrogen) containing 10% fetal bovine serum (Invitrogen), 1% pen/strep (Invitrogen), 1% Nonessential amino acids (Invitrogen) and 500 μg/ml G418 (Invitrogen). Cells were released from flasks using Cell Dissociation Buffer (Invitrogen). Cells were pelleted by centrifugation at 500×G for 5 minutes. Membranes were prepared by resuspending cells in ice cold Assay Buffer (25 mM Tris pH 7.4, 5 mM EDTA, 5 mM EGTA, Complete Protease Inhibitor (Roche)). Cells were lysed with 12 strokes of a dounce homogenizer. Unlysed cells were pelleted by centrifugation at 500×G for 5 minutes. Membranes were pelleted by centrifugation at 25,000×G for 30 minutes. Membranes were resuspended in TEE, dounced 12 strokes, and pelleted a second time at 25,000×G for 30 minutes. Membrane pellet was resuspended in 50 mM Tris pH 7.4, 100 mM NaCl, 3 mM MgCl2, 0.2 mM EGTA, Complete Protease Inhibitor (Roche). Protein concentration was determined using the Micro-BCA Protein Assay Kit (Pierce) using BSA as a standard. Membranes were frozen and stored at −80 degrees Celsius until use. GTPγS Binding: 40 μl of test compound was incubated with 20 μl of [^35S] GTPγS (Perkin Elmer) (1250 Ci/millimole) and 140 μl of membrane homogenate (5 ug/well) in polypropylene 96-well plates (Corning). Final reaction conditions were 50 mM Tris pH 7.4, 100 mM NaCl, 3 mM […], 0.2 mM EGTA, 0.04% BSA. After incubation at 37 degrees Celsius for 45 minutes reactions were harvested by vacuum filtration through Unifilter GF/B-96 filters (Perkin Elmer) using a FilterMate Plate Harvester (Perkin Elmer). Filters were rinsed 4 times with ice cold 50 mM Tris pH 7.4, 3 mM MgCl2, 0.2 mM EGTA and dried at 50 degrees Celsius for at least 30 minutes. 40 μl of Microscint-20 (Perkin Elmer) was added per well, and plates were counted using a Top-Count Microplate Scintillation Counter (Perkin Elmer). Binding data were analyzed and EC50 values were calculated using Graph Pad Prism 4.0 Software.

[2] = biological target: T1, human CB1 receptor; assay: Human CB1 receptor binding, [3H] CP-55,940 displacement on HEK cell membranes; design: expressed in transfected cells; membranes; conditions: [3H] CP-55,940 500 pM
Procedure: The Human CB1 receptor binding affinity and other biological activities of the compounds of this invention are determined by the following procedures.
Membrane preparation: Human Embryonic Kidney (HEK) Cells expressing the human CB1 receptor under transcriptional regulation of a tetracycline inducible promoter were grown in Dulbecco's Modified Essential Medium with sodium pyruvate (Invitrogen, Carlsbad, Calif.) containing 10% tetracycline free fetal bovine serum (Clonetech, Mountain View, Calif.) 100 μg/ml hygromycin (Calbiochem, San Diego, Calif.), 5 μg/ml blasticidin (Invitrogen). CB1 receptor expression was induced by addition of 1 μg/ml doxycycline (Calbiochem) and incubation for an additional 24 hours. Cells were released from flasks using Cell Dissociation Buffer (Invitrogen). Cells were pelleted by centrifugation at 500×G for 5 minutes. Membranes were prepared by resuspending cells in ice cold TEE Buffer (25 mM Tris pH 7.4, 5 mM EDTA, 5 mM EGTA, Complete Protease Inhibitor (Roche, Basel, Switzerland)). Cells were lysed with 12 strokes of a dounce homogenizer. Unlysed cells were pelleted by centrifugation at 500×G for 5 minutes. Membranes were pelleted by centrifugation at 25,000×G for 30 minutes. Membranes were resuspended in TEE, dounced 12 strokes, and pelleted a second time at 25,000×G for 30 minutes. Membrane pellet was resuspended in 50 mM Tris pH 7.4, 100 mM NaCl, 3 mM MgCl2, 0.2 mM EGTA, Complete Protease Inhibitor (Roche). Protein concentration was determined using the Micro-BCA Protein Assay Kit (Pierce, Rockford, Ill.) using BSA as a standard. Membranes were quick frozen and stored at −80 degrees Celsius until use. Binding experiments: 50 μl of test compound was incubated with 50 μl, of [^3H] CP-55,940 (Perkin Elmer, Boston, Mass.) (final concentration 500 pM) and 150 μl of membrane homogenate (1 μg/well) in polypropylene 96-well plates (Corning, Acton, Mass.). Final reaction conditions were 50 mM Tris pH 7.4, 100 mM NaCl, 3 mM MgCl2, 0.2 mM EGTA, 0.04% BSA. Nonspecific binding was determined by incubation with 50 μM WIN-55,212-2 (Tocris, Ellisville, Mo.). After incubation at room temperature for 60 minutes reactions were harvested by vacuum filtration through Unifilter GF/B-96 filters (Perkin Elmer) that had been presoaked in assay buffer containing 0.5% BSA (Sigma, St. Louis, Mo.) using a FilterMate Plate Harvester (Perkin Elmer). Filters were rinsed 4 times with 50 mM Tris pH 7.4, 0.025% Tween20 and dried at 50 degrees Celsius for at least 30 minutes. 40 μl of Microscint-20 (Perkin Elmer) was added per well, and plates were counted using a Top-Count Microplate Scintillation Counter (Perkin Elmer). Binding data were analyzed and EC50 and Ki values calculated using Graph Pad Prism 4.0 Software.

Row | SMILES | EC50 [1] [nM] | Ki [2] [nM] | melting point [°C]
1 | CC(C)(C)[C@H](NC(=O)n1c(=O)n(CC2CCCCC2)c2cccc(F)c21)C(N)=O [Example 271] | 6.53 | 1.28 | 
2 | CC(C)(C)[C@H](NC(=O)n1c(=O)n(CC2CCOCC2)c2ccccc21)C(=O)NCC(N)=O [Example 302] | 407 | 82.3 | 
3 | CC(C)(C)[C@H](NC(=O)n1c(=O)n(Cc2ccccc2)c2ccccc21)c1nnc(N)o1 [Example 359] | 79.2 | 3.06 | 
4 | Cc1nc(CNC(=O)n2c(=O)n(CC3CCOCC3)c3ccccc32)cs1 [Example 341] | 355 | 24.7 | 
5 | O=C(N[C@H]1CCCc2ccccc21)n1c(=O)n(CC2CCCCC2)c2ccccc21 [Example 197] | 13.2 | 0.78 | 
6 | CC(C)(C)[C@H](NC(=O)n1c(=O)n(CC2CCOCC2)c2cc(F)ccc21)C(=O)NC1CC1 [Example 310] | 173 | 30.2 | 
7 | Cc1cccc2c1n(CC1CCCCC1)c(=O)n2C(=O)N[C@H](C(N)=O)C(C)(C)C [Example 174] | 8.3 | 0.32 | 
8 | CC(C)[C@H](NC(=O)n1c(=O)n(CC2CCCCC2)c2ccccc21)C(N)=O [Example 203] | 74.1 | 8.23 | 
9 | CC(C)(C)[C@H](NC(=O)n1c(=O)n(CCC(F)(F)F)c2ccccc21)C(N)=O [Example 227] | 245 | 10.2 | 
10 | CC(C)(C)[C@H](NC(=O)n1c(=O)n(CC2CCOCC2)c2ccccc21)C(=O)NCCCO [Example 318] | 230 | 23.9 | 
11 | O=C(N[C@H]1CCCC[C@@H]1O)n1c(=O)n(CC2CCCCC2)c2ccccc21 [Example 191] | 394 | 10.5 | 
12 | CC(C)(C)[C@H](NC(=O)n1c(=O)n(CC2CCOCC2)c2ccccc21)C(=O)NC1CCC1 [Example 300] | 260 | 41 | 
13 | CC(C)(C)[C@H](NC(=O)n1c(=O)n(CC2CCCCC2)c2cc(Br)ccc21)C(N)=O [Example 307] | 49.5 | 1.85 | 
14 | Cc1ccc2c(c1)n(CC1CCCCC1)c(=O)n2C(=O)N[C@@H](Cc1ccccc1)C(N)=O [Example 268] | 2580 | 130 | 
15 | Cc1cccc2c1n(CCS(C)(=O)=O)c(=O)n2C(=O)N[C@H](C(=O)N(C)C)C(C)(C)C |  |  | 190.7
16 | CC(C)(C)[C@H](NC(=O)n1c(=O)n(CC2CCOCC2)c2ccccc21)C(=O)NCCO [Example 317] | 83.6 | 12 | 
17 | CC(C)(C)[C@H](NC(=O)n1c(=O)n(CC2CCCCC2)c2ccc(Cl)cc21)C(N)=O [Example 166] | 31.5 | 2.52 | 
18 | CC(C)(C)[C@H](NC(=O)n1c(=O)n(Cc2ccccc2)c2ccccc21)C(N)=O [Example 348] | 60.1 | 5.64 | 
19 | Cc1nc(C)c(CNC(=O)n2c(=O)n(CC3CCOCC3)c3ccccc32)s1 [Example 337] | 6490 | 12.1 | 
20 | CC(C)(C)[C@H](NC(=O)n1c(=O)n(CC2CCOCC2)c2cc(F)ccc21)c1nnc(N)o1 [Example 347] | 229 | 9.5 | 

Row | SMILES | EC50 [1] [nM] | Ki [2] [nM] | melting point [°C]
21 | CC(C)(C)[C@H](NC(=O)n1c(=O)n(CC2CCCCC2)c2ccccc21)C(N)=O [Example 200] | 96.9 | 0.52 | 
22 | Cc1nc(C(F)(F)F)c(CNC(=O)n2c(=O)n(CC3CCOCC3)c3ccccc32)s1 [Example 349] | 157 | 19.1 | 
23 | CC(C)(C)[C@H](NC(=O)n1c(=O)n(CC2CCCCC2)c2c(Cl)cccc21)C(N)=O [Example 173] | 2.5 | 0.34 | 
24 | O=C(N[C@H]1CCCc2ccccc21)n1c(=O)n(CC2CCOCC2)c2ccccc21 [Example 276] | 5.8 | 0.374 | 
25 | CC(C)(C)[C@H](NC(=O)n1c(=O)n(Cc2ccc(F)cc2)c2ccccc21)C(N)=O [Example 363] | 4.74 | 0.36 | 
26 | CCCCCn1c(=O)n(C(=O)N[C@H](C(N)=O)C(C)(C)C)c2ccccc21 [Example 202] | 20.1 | 4.52 | 
27 | CC[C@H](C)[C@H](NC(=O)n1c(=O)n(CCN2CCCCC2)c2ccccc21)C(N)=O (as salt: hydrochloride) |  |  | 217.1
28 | CCCCn1c(=O)n(C(=O)N[C@H](C(N)=O)C(C)(C)C)c2ccccc21 [Example 292] | 75.1 | 2.09 | 
29 | Cc1nc(C(C)NC(=O)n2c(=O)n(CC3CCOCC3)c3ccccc32)cs1 (stereo not shown) [Example 350] | 131 | 13.4 | 
30 | CCCCCn1c(=O)n(C(=O)N[C@H]2c3ccccc3C[C@H]2O)c2ccccc21 [Example 190] | 406 | 8.09 | 
31 | CC(C)(C)[C@H](NC(=O)n1c(=O)n(Cc2ccccc2F)c2ccccc21)C(N)=O [Example 357] | 123 | 2.4 | 
32 | CC(C)(C)[C@H](NC(=O)n1c(=O)n(CC2CC=C(F)CC2)c2ccccc21)C(N)=O (single isomer, unassigned) [Example 305] | 1.74 | 0.18 | 
33 | CCc1nc(CNC(=O)n2c(=O)n(CC3CCOCC3)c3ccccc32)no1 [Example 327] | > 10000 | 36 | 
34 | CN(C)CC(C)(C)CNC(=O)n1c(=O)n(CC2CCCCC2)c2ccccc21 [Example 182] | 267 | 17 | 
35 | O=C(N[C@H]1c2ccccc2C[C@H]1O)n1c(=O)n(CC2CCOCC2)c2ccccc21 [Example 280] | 136 | 31 | 
36 | CC(C)(C)[C@@H](CO)NC(=O)n1c(=O)n(CC2CCCCC2)c2ccccc21 [Example 176] | 82.4 | 2.22 | 
37 | CC(C)(C)[C@H](NC(=O)n1c(=O)n(Cc2ccccc2)c2ccccc21)C(=O)NCCO [Example 360] | 149 | 19.3 | 
38 | CC(C)(C)[C@H](NC(=O)n1c(=O)n(CC2CCCCC2)c2cc(F)ccc21)C(N)=O [Example 169] | 1 | 0.28 | 
39 | Cc1cc(CNC(=O)n2c(=O)n(CC3CCOCC3)c3ccccc32)no1 [Example 312] | 380 | 69.5 | 
